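Dose response: 5 concentrations. Exposure: 48 h. Format: 96-well plates. Endpoint: linear interpolation; highest concentration if not reached. Abbreviation: GI50, concentration required for 50% inhibition of growth. Definition used: TGI = concentration required for complete inhibition of growth.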
Key:
Experiment in all cases: NCI tumour cell line growth inhibition, 48 h
[1] = tested on: 786-0 renal
[2] = tested on: A498 renal
[3] = tested on: A549 NSCLC
[4] = tested on: ACHN renal
[5] = tested on: BT-549 breast
[6] = tested on: CAKI-1 renal
[7] = tested on: CCRF-CEM leukemia
[8] = tested on: COLO 205 colon
[9] = tested on: DU-145 prostate
[10] = tested on: EKVX NSCLC
[11] = tested on: HCC-2998 colon
[12] = tested on: HCT-116 colon
[13] = tested on: HCT-15 colon
[14] = tested on: HOP-62 NSCLC
[15] = tested on: HS 578T breast
[16] = tested on: HT29 colon
[17] = tested on: IGROV1 ovarian
[18] = tested on: K-562 leukemia
[19] = tested on: KM12 colon
[20] = tested on: LOX IMVI melanoma
[21] = tested on: M14 melanoma
[22] = tested on: MALME-3M melanoma
[23] = tested on: MCF7 breast
[24] = tested on: MDA-MB-231 breast
[25] = tested on: MDA-MB-435
[26] = tested on: MOLT-4 leukemia
[27] = tested on: NCI-H226 lung
[28] = tested on: NCI-H23 lung
[29] = tested on: NCI-H460 lung
[30] = tested on: NCI-H522 lung
[31] = tested on: NCI/ADR-RES ovarian
[32] = tested on: OVCAR-4 ovarian
[33] = tested on: OVCAR-5 ovarian
[34] = tested on: OVCAR-8 ovarian
[35] = tested on: PC-3 prostate
[36] = tested on: RPMI-8226 leukemia
[37] = tested on: RXF 393 renal
[38] = tested on: SF-268 CNS
[39] = tested on: SF-295 CNS
[40] = tested on: SF-539 CNS
[41] = tested on: SK-MEL-28 melanoma
[42] = tested on: SK-MEL-5 melanoma
[43] = tested on: SK-OV-3 ovarian
[44] = tested on: SN12C renal
[45] = tested on: SNB-19 CNS
[46] = tested on: SNB-75 CNS
[47] = tested on: SR leukemia
[48] = tested on: SW-620 colon
[49] = tested on: T-47D breast
[50] = tested on: TK-10 renal
[51] = tested on: U251 CNS
[52] = tested on: UACC-257 melanoma
[53] = tested on: UACC-62 melanoma
[54] = tested on: UO-31 renal

C#C[C@]1(O)CC[C@H]2[C@@H]3CC=C4c5sc(N6CCN(C)CC6)nc5CC[C@]4(C)[C@H]3CC[C@@]21C
GI50 [1]: 1.7 µM
TGI [1]: 3.15 µM
GI50 [2]: 4.25 µM
TGI [2]: 16.9 µM
GI50 [3]: 1.83 µM
TGI [3]: 3.39 µM
GI50 [4]: 1.79 µM
TGI [4]: 3.25 µM
GI50 [5]: 1.9 µM
TGI [5]: 3.95 µM
GI50 [6]: 1.56 µM
TGI [6]: 3.08 µM
GI50 [7]: 2.23 µM
TGI [7]: 4.74 µM
GI50 [8]: 1.98 µM
TGI [8]: 3.83 µM
GI50 [9]: 2.23 µM
TGI [9]: 5.13 µM
GI50 [10]: 1.84 µM
TGI [10]: 3.83 µM
GI50 [11]: 2.06 µM
TGI [11]: 4.35 µM
GI50 [12]: 1.78 µM
TGI [12]: 3.38 µM
GI50 [13]: 1.25 µM
TGI [13]: 2.93 µM
GI50 [14]: 1.71 µM
TGI [14]: 3.27 µM
GI50 [15]: 2.42 µM
TGI [15]: 8.44 µM
GI50 [16]: 1.76 µM
TGI [16]: 4.18 µM
GI50 [17]: 1.87 µM
TGI [17]: 3.62 µM
GI50 [18]: 1.34 µM
TGI [18]: 4.5 µM
GI50 [19]: 1.92 µM
TGI [19]: 4.08 µM
GI50 [20]: 1.7 µM
TGI [20]: 3.33 µM
GI50 [21]: 1.54 µM
TGI [21]: 2.97 µM
GI50 [22]: 1.76 µM
TGI [22]: 3.28 µM
GI50 [23]: 1.83 µM
TGI [23]: 3.8 µM
GI50 [24]: 1.93 µM
TGI [24]: 3.73 µM
GI50 [25]: 1.16 µM
TGI [25]: 2.53 µM
GI50 [26]: 1.89 µM
TGI [26]: 4.66 µM
GI50 [27]: 9.83 µM
TGI [27]: 28.8 µM
GI50 [28]: 1.76 µM
TGI [28]: 3.59 µM
GI50 [29]: 1.99 µM
TGI [29]: 3.8 µM
GI50 [30]: 1.48 µM
TGI [30]: 3.3 µM
GI50 [31]: 2.18 µM
TGI [31]: 5.71 µM
GI50 [32]: 1.94 µM
TGI [32]: 4.02 µM
GI50 [33]: 1.82 µM
TGI [33]: 3.53 µM
GI50 [34]: 1.81 µM
TGI [34]: 3.41 µM
GI50 [35]: 1.61 µM
TGI [35]: 3.07 µM
GI50 [36]: 1.6 µM
TGI [36]: 4.16 µM
GI50 [37]: 1.42 µM
TGI [37]: 3.05 µM
GI50 [38]: 2.01 µM
TGI [38]: 4.31 µM
GI50 [39]: 1.87 µM
TGI [39]: 3.96 µM
GI50 [40]: 1.45 µM
TGI [40]: 2.9 µM
GI50 [41]: 1.68 µM
TGI [41]: 3.19 µM
GI50 [42]: 1.74 µM
TGI [42]: 3.2 µM
GI50 [43]: 1.68 µM
TGI [43]: 3.18 µM
GI50 [44]: 1.77 µM
TGI [44]: 3.43 µM
GI50 [45]: 1.81 µM
TGI [45]: 3.75 µM
GI50 [46]: 1.69 µM
TGI [46]: 3.87 µM
GI50 [47]: 1.56 µM
TGI [47]: 5.39 µM
GI50 [48]: 1.81 µM
TGI [48]: 3.45 µM
GI50 [49]: 12.1 µM
TGI [49]: 30.1 µM
GI50 [50]: 2.36 µM
TGI [50]: 4.55 µM
GI50 [51]: 1.51 µM
TGI [51]: 2.87 µM
GI50 [52]: 1.77 µM
TGI [52]: 3.27 µM
GI50 [53]: 1.79 µM
TGI [53]: 3.42 µM
GI50 [54]: 1.74 µM
TGI [54]: 3.17 µM

From PubChem BioAssay (NCI)
